From PMC8040968, “Identification of small molecule allosteric modulators of 5,10-methylenetetrahydrofolate reductase (MTHFR) by targeting its unique regulatory domain” (Biochimie, 2021)
“And” between values parts separate entries of the source, which are not always exact repeats. Identical values can stand only once. Like-named read-outs stand apart in the source and are kept apart here. Each block holds one compound with its values, some of them ahead of it.

Legend:
hsMTHFRCD-RD [1] = target: T1, hsMTHFRCD-RD (Homo sapiens, UniProt P42898); assay: MIDAS protein-metabolite interactomics (equilibrium dialysis FIA-MS), CD-RD construct; type: binding; details: Fig. 2B
T1 construct: encompassing just the CD and RD (amino acids 38–644; hsMTHFRCD-RD); made in house
T1 sequence (P42898 38-644): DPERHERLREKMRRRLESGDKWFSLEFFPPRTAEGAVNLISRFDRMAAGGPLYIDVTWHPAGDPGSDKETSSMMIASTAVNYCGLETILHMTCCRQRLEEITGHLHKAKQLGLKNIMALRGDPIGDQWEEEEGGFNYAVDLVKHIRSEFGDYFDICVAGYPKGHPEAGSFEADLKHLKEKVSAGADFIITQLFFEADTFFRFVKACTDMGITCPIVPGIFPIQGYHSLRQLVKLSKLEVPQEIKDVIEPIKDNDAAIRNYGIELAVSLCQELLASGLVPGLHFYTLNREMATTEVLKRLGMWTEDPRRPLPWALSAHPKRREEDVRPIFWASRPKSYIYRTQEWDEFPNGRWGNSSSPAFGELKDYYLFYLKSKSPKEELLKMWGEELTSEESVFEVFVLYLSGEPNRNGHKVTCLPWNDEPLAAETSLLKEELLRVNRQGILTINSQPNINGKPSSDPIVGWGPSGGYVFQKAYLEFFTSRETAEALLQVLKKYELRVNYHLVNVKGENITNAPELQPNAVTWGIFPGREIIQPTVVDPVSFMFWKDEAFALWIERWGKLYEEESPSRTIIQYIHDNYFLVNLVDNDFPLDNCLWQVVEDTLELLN
Method: (§1) Protein–metabolite interactomics using an updated MIDAS screening platform was performed as reported previously. Briefly, a flow-injection analysis mass-spectrometry (FIA-MS) method utilising a validated library of 400 metabolite standards was combined into four unique and defined screening pools in 150 mM ammonium acetate pH 7.4. For each metabolite pool, 8 μl of hsMTHFRCD-RD (542 μM) or hsMTHFRRD (240 μM) protein was arrayed in triplicate across a SWISSCI 10 MWC 96-well microdialysis plate (protein chambers). To the trans side of each dialysis well, 300 μl of a metabolite pool (50 μM per metabolite) was arrayed in triplicate for each target protein (metabolite chambers). Dialysis plates were placed in the dark at 4 °C on a rotating shaker (150 rev min−1) and incubated for 40 h. Post-dialysis, protein- and metabolite-chamber dialysates were normalized and diluted 1:10 in 80% methanol, incubated for 30 min on ice, and centrifuged at 3200 RCF for 15 min to remove precipitated protein. Metabolite pool analytes were arrayed across a 384-well microvolume plate and placed at 4 °C in a Shimadzu SIL-20ACXR autosampler for FIA-MS metabolomics analysis. 2 μl of each sample was analysed in technical triplicate by FIA-MS on a SCIEX X500R QTOF MS with interspersed injections of blanks.
FIA-MS spectra from MIDAS protein–metabolite interactomics was qualitatively and quantitatively processed in SCIEX OS 1.6 software to determine relative metabolite abundance by integrating the mean area under the extracted-ion chromatogram curve across technical triplicates. Log2 (fold change) for each metabolite was calculated from the relative metabolite abundance in the protein chamber (numerator) and metabolite chamber (denominator) from dialysis triplicates. For each technical triplicate, up to one outlier was removed using a z-score cutoff of five (<0.1% of observations). The corrected technical replicates were collapsed to one mean fold-change summary per protein–metabolite pair. To remove fold-change variation that was not specific to a given metabolite–protein pair, the first three principal components of the total MIDAS dataset were removed (∼75% of observed variance) creating Log2 (corrected fold change). Protein–metabolite z-scores were determined by comparing the target protein–metabolite Log2 (corrected fold change) to a no-signal model for that metabolite using measures of the central tendency (median) and standard deviation (extrapolated from the 25–75% quantiles) which are not biased by the signals in the tails of a metabolite’s fold-change distribution. Z-scores were controlled for false-discovery rate using Storey’s q value (http://github.com/jdstorey/qvalue). Protein–metabolite interactions with p-values < 0.05 and q-values < 0.1 were considered significant.

hsMTHFRFL = target: T2, hsMTHFRFL (Homo sapiens, UniProt P42898); assay: MTHFR enzyme activity assay (physiological forward assay), purified enzyme; type: biochemical; details: for Ki: four-parameter curve fit, n = 3
T2 construct: encompassing the full-length (amino acids 1–656; hsMTHFRFL); made in house
T2 sequence (P42898 whole entry, the tested form may be a part): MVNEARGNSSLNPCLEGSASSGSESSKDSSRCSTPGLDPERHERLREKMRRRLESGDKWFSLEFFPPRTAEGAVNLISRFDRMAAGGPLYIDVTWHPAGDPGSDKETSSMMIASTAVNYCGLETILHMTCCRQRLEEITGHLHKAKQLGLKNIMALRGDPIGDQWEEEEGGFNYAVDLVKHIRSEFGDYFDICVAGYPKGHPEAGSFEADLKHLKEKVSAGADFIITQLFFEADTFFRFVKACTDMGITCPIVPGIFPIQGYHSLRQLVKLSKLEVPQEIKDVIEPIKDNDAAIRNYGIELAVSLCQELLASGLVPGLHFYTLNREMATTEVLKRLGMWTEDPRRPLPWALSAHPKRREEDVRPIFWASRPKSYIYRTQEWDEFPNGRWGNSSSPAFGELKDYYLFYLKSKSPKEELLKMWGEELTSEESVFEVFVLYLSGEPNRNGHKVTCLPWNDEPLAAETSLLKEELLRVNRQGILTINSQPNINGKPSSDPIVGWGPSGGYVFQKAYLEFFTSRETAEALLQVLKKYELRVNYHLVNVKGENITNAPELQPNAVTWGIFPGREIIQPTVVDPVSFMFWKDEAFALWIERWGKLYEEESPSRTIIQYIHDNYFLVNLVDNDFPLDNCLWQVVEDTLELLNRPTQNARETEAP
Method: (§2) All enzymatic assays were performed using the physiological forward assay described by Suormala et al.. For (S)-SKI-72 inhibition in […] (ATCC: CRL-3216) cell lysates, the assay was performed with the modifications described by Rummel et al. and Burda et al.. For (S)-SKI-73 inhibition of intact HEK293 cells, 300,000 cells/well of a 6-well plate were allowed to settle overnight. The next day, media containing Dulbecco’s Modified Eagle Medium (Gibco) supplemented with 10% fetal bovine serum (Gibco) and 1% antibiotic/antimycotic (Gibco) was exchanged to fresh media of the same composition plus the indicated concentration of (S)-SKI-73. Following incubation for 12 or 48 h, cells were harvested, lysed and assayed as previously described. Assay of hsMTHFRFL was performed as described. Purified AdoMet was used for inhibition. Sinefungin was purchased from Sigma-Aldrich (Cat# S8559). The Ki for each compound was estimated following a plot of inhibitor versus response and a four-parameter curve fit as performed by GraphPad Prism (v8.00).

hsMTHFRRD [2] = target: T3, hsMTHFRRD (Homo sapiens, UniProt P42898); assay: Differential scanning fluorimetry binding assay; details: up to 250 μM compound, 0.1 mg ml^−1 hsMTHFRRD
T3 construct: encompassing the RD and part of the linker region (amino acids 348–656; hsMTHFRRD); made in house
T3 sequence (P42898 348-656): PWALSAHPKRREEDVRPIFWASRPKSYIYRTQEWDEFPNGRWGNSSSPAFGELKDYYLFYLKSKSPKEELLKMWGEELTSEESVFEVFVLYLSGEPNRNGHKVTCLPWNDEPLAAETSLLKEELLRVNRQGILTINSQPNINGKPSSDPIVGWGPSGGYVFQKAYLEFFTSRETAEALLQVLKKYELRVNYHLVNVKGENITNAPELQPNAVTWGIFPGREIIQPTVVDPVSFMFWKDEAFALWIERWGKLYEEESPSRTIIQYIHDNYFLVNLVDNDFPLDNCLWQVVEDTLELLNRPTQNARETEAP
Method: Differential scanning fluorimetry was used to assay shifts in melting temperature caused by ligand binding in a 96-well PCR plate using an LC480 light cyler (Roche). Each well (20 μl) consisted of hsMTHFRRD protein (0.1 mg ml^−1), SYPRO-Orange (Invitrogen) diluted 1000X, and buffer (10 mM HEPES pH 7.5, 500 mM NaCl) in the presence of 0–250 μM AdoMet, AdoHcy or analogue compounds. Analogue compounds were part of a AdoMet library consisting of 162 synthetic analogues of adenosine scaffolds which were compiled from the SGC’s compound collection.

hsMTHFRRD [3] = target: T3, hsMTHFRRD; assay: Surface plasmon resonance, regulatory domain; type: binding; details: SPR, steady state affinity fit, read-out: Kd (dissociation constant)
Method: (§3) For determination of the affinity between hsMTHFRCD-RD and (S)-SKI-72, 30 μg of hsMTHFRCD-RD was immobilized onto Sensor Chip CM5 sensor (series S) to a density of 7500 RU via the protein –NH2 groups employing 1-Ethyl-3-(3-dimethylaminoproppyl)carbodiimide crosslinker (EDC) and N-hydroxysuccinimide (NHS) in acetate buffer pH 4.0. For the binding experiment, (S)-SKI-72 was serially diluted (1:1) from 6.25 μM to 0.05 μM in 20 mM HEPES pH 7.5, 150 mM NaCl, 0.5 mM TCEP, 0.05% TWEEN-20, 5% DMSO and subsequently injected at a 30 μL/min flow rate over the sensor. […] For the binding experiment, (S)-SKI-72 was serially diluted from 12.5 μM to 0.012 μM and AdoMet was serially diluted from 25 μM to 0.19 μM and subsequently injected at a 30 μL/min flow rate over the sensor. Data were analysed using the Biacore S200 Evaluation Software.

[4] = target: T4, endogenous MTHFR from HEK293 cell lysate (Homo sapiens, UniProt P42898); assay: MTHFR enzyme activity assay in HEK293 cell lysate; type: biochemical; details: for Ki: n = 3
T4 construct: Remaining activity of endogenous MTHFR from HEK293 cell lysate; host or cells: HEK293
T4 sequence (P42898 whole entry): as the sequence (P42898 whole entry, the tested form may be a part) above
Method: as §2

hsMTHFRRD [5] = target: T3, hsMTHFRRD; assay: MIDAS protein-metabolite interactomics (equilibrium dialysis FIA-MS), regulatory domain alone; type: binding; details: Fig. 2C
Method: as §1, with “Post-dialysis, protein- and metabolite-chamber dialysates were normalized and diluted 1:10 in 80% methanol, incubated for 30 min on ice, and centrifuged at 3200 RCF for 15 min to remove precipitated protein. Metabolite pool analytes were arrayed across a 384-well microvolume plate and placed at 4 °C in a Shimadzu SIL-20ACXR autosampler for FIA-MS metabolomics analysis.” left out
FIA-MS spectra from MIDAS protein–metabolite interactomics was qualitatively and quantitatively processed in SCIEX OS 1.6 software to determine relative metabolite abundance by integrating the mean area under the extracted-ion chromatogram curve across technical triplicates. Log2 (fold change) for each metabolite was calculated from the relative metabolite abundance in the protein chamber (numerator) and metabolite chamber (denominator) from dialysis triplicates. […]

[6] = design: method as in PMID 31657716; details: cited from earlier work
hsMTHFRCD-RD [7] = target: T1, hsMTHFRCD-RD; assay: Surface plasmon resonance, CD-RD construct; type: binding; details: SPR, read-out: Kd (dissociation constant)
Method: as §3

MIDAS enrichment or depletion of metabolite (hsMTHFRCD-RD [1]): depleted
SMILES: NC(=O)C1=CN([C@@H]2O[C@H](COP(=O)(O)OP(=O)(O)OC[C@H]3O[C@@H](n4cnc5c(N)ncnc54)[C@H](OP(=O)(O)O)[C@@H]3O)[C@@H](O)[C@H]2O)C=CC1 [NADPH]

MIDAS enrichment or depletion of metabolite (hsMTHFRCD-RD [1]): depleted
SMILES: NC(=O)C1=CN([C@@H]2O[C@H](COP(=O)(O)OP(=O)(O)OC[C@H]3O[C@@H](n4cnc5c(N)ncnc54)[C@H](O)[C@@H]3O)[C@@H](O)[C@H]2O)C=CC1 [NADH]

effect on the activity of hsMTHFRFL (hsMTHFRFL; concentrations up to ∼100 μM, above that appeared to inhibit): no effect
SMILES: Nc1ncnc2c1ncn2[C@@H]1O[C@H](C[C@@H](N)CC[C@H](N)C(=O)O)[C@@H](O)[C@H]1O [Sinefungin, sinefungin]

MIDAS enrichment or depletion of metabolite (hsMTHFRCD-RD [1]): enriched
SMILES: Nc1nc(=O)c2nc(CNc3ccc(C(=O)N[C@@H](CCC(=O)O)C(=O)O)cc3)cnc2[nH]1 [folate]

MIDAS enrichment or depletion of metabolite (hsMTHFRCD-RD [1]): enriched
Tm shift (hsMTHFRRD [2]): approximately 4 °C
Kd (hsMTHFRRD [3]): 4.3 µM and 1.06 µM
Ki (hsMTHFRFL; purified hsMTHFRFL): 5.8 ± 0.2 µM
Ki [4]: 8.2 µM and 6.8 µM
MIDAS enrichment or depletion of metabolite (hsMTHFRRD [5]): enriched
SMILES: C[S+](CC[C@H](N)C(=O)[O-])C[C@H]1O[C@@H](n2cnc3c(N)ncnc32)[C@H](O)[C@@H]1O (stereo partly shown) [AdoMet, S-adenosylmethionine]

MIDAS enrichment or depletion of metabolite (hsMTHFRCD-RD [1]): enriched
SMILES: Nc1nc2c(c(=O)[nH]1)N(C=O)C(CNc1ccc(C(=O)N[C@@H](CCC(=O)O)C(=O)O)cc1)CN2 (stereo partly shown) [5-FTHF, 5-formyltetrahydrofolate]

Kd (hsMTHFRCD-RD [7]; as printed in Fig. 3A): 0.6 µM
Kd (hsMTHFRCD-RD [7]; steady state affinity fit): 0.612 µM and 0.596 µM
Tm shift (hsMTHFRRD [2]): approximately 10 °C
Kd (hsMTHFRRD [3]): 1.47 µM and 1.17 µM and 1.5 µM
residual activity at high concentrations (hsMTHFRFL; purified hsMTHFRFL, even at high concentrations): ~30%
Ki (hsMTHFRFL; purified hsMTHFRFL): 0.78 ± 0.05 µM
residual activity at the highest concentrations tested [4]: approximately 50%
Ki [4]: 3 ± 0.2 µM
SMILES: COc1ccc(CCNC(=O)[C@@H](N)CC[C@H](CNCc2ccccc2)C[C@H]2O[C@@H](n3cnc4c(N)ncnc43)[C@H](O)[C@@H]2O)cc1 [(S)-SKI-72]
membrane permeability [6]: poor

MIDAS enrichment or depletion of metabolite (hsMTHFRCD-RD [1]): enriched
SMILES: Cc1cc2nc3c(=O)[nH]c(=O)nc-3n(C[C@H](O)[C@H](O)[C@H](O)COP(=O)(O)OP(=O)(O)OC[C@H]3O[C@@H](n4cnc5c(N)ncnc54)[C@H](O)[C@@H]3O)c2cc1C [FAD, flavin adenine dinucleotide]

MIDAS enrichment or depletion of metabolite (hsMTHFRCD-RD [1]): depleted
SMILES: CN1c2c(nc(N)[nH]c2=O)NCC1CNc1ccc(C(=O)N[C@@H](CCC(=O)O)C(=O)O)cc1 (stereo partly shown) [5-MTHF, 5-methyltetrahydrofolate]

MIDAS enrichment or depletion of metabolite (hsMTHFRCD-RD [1]): enriched
Tm shift (hsMTHFRRD [2]): ~7 °C
MIDAS enrichment or depletion of metabolite (hsMTHFRRD [5]): enriched
SMILES: Nc1ncnc2c1ncn2[C@@H]1O[C@H](CSCC[C@H](N)C(=O)O)[C@@H](O)[C@H]1O [AdoHcy, S-adenosylhomocysteine]
